{
  "source": "patent US20130212744A1",
  "about": "“METHOD OF REDUCING INSECT-VECTORED VIRAL INFECTIONS” (priority 2010, published 2013)",
  "type_in_all_cases": "in vivo",
  "conditions_in_all_cases": "150 g ai/hl",
  "key": {"[1]": {"tested_on": "whitefly Bemisia tabaci nymphs", "assay": "Foliar use field trial on tomato, efficacy on whitefly nymphs", "protocol": "(§1) Two studies were carried out in Elhasanya, Egypt in 2009 on tomato plants of the variety Fayrouz with the main goal to measure efficacy on the whitefly Bemisia tabaci. The plot size was 4.8 m^2 and 6 replicates were used in the trial. Products were applied 3 times on young tomato plants at BBCH stages 14, 17 and 51 at spray intervals between 12 and 19 days. The spray volume was at the first application 350 l/ha and later 500 l/ha. The evaluation of this study was done counting the adult whiteflies (Bemisia tabaci) as well as the nymphs and the eggs in each plot. In addition to the direct whitefly effect, visual symptoms of the virus, mainly TYLCV (tomato yellow leaf curl virus) were evaluated also.\n(§2) ASM=Acibenzolar-S-methyl. WG 50=Actigard® 50WG, a water-dispersible granule with the active ingredient ASM CYNT=Cyantraniliprole. WG 40=Cyazypyr®, a water dispersable granule with the active ingredient CYNT. Results on whitefly adults. Trial 1"}, "[2]": {"tested_on": "whitefly Bemisia tabaci adults", "assay": "Foliar use field trial on tomato, efficacy on whitefly adults", "protocol": "as §1, §2"}, "[3]": {"tested_on": "TYLCV (tomato yellow leaf curl virus)", "assay": "Foliar use field trial on tomato, infected leaf area by TYLC virus", "protocol": "as §1, §2\nEvaluation of percentage of infected leaf area by TYLC virus (average of 45 plants evaluated per treatment) Trial 1"}},
  "data": [
    {"smiles": "Cc1cc(C)c(C2=C(OC(=O)CC(C)(C)C)C3(CCCC3)OC2=O)c(C)c1", "note": "[Spiromesifen]", "values": [
      {"measurement": "% Efficacy on Nymphs", "setting": "[1]; 5DAA2, Trial 1", "value": 86, "unit": "%"},
      {"measurement": "% Efficacy on Nymphs", "setting": "[1]; 5DAA2, Trial 2", "value": 86, "unit": "%"},
      {"measurement": "% Efficacy on Nymphs", "setting": "[1]; 5DAA3, Trial 1", "value": 88, "unit": "%"},
      {"measurement": "% Efficacy on Nymphs", "setting": "[1]; 5DAA3, Trial 2", "value": 88, "unit": "%"},
      {"measurement": "% Efficacy on Nymphs", "setting": "[1]; 10DAA2, Trial 1", "value": 85, "unit": "%"},
      {"measurement": "% Efficacy on Nymphs", "setting": "[1]; 10DAA2, Trial 2", "value": 85, "unit": "%"},
      {"measurement": "% Efficacy on Nymphs", "setting": "[1]; 10DAA3, Trial 1", "value": 84, "unit": "%"},
      {"measurement": "% Efficacy on Nymphs", "setting": "[1]; 10DAA3, Trial 2", "value": 84, "unit": "%"},
      {"measurement": "% Efficacy on Nymphs", "setting": "[1]; 15DAA3, Trial 1", "value": 81, "unit": "%"},
      {"measurement": "% Efficacy on Nymphs", "setting": "[1]; 15DAA3, Trial 2", "value": 81, "unit": "%"},
      {"measurement": "% Efficacy on Nymphs", "setting": "[1]; 20DAA3, Trial 1", "value": 76, "unit": "%"},
      {"measurement": "% Efficacy on Nymphs", "setting": "[1]; 20DAA3, Trial 2", "value": 76, "unit": "%"},
      {"measurement": "% Efficacy on Nymphs Avg % C", "setting": "[1]; Avg, Trial 1", "value": 83, "unit": "%"},
      {"measurement": "% Efficacy on Adults", "setting": "[2]; 5DAA1, Trial 1", "value": 61, "unit": "%"},
      {"measurement": "% Efficacy on Adults", "setting": "[2]; 5DAA1, Trial 2", "value": 61, "unit": "%"},
      {"measurement": "% Efficacy on Adults", "setting": "[2]; 5DAA2, Trial 1", "value": 71, "unit": "%"},
      {"measurement": "% Efficacy on Adults", "setting": "[2]; 5DAA2, Trial 2", "value": 71, "unit": "%"},
      {"measurement": "% Efficacy on Adults", "setting": "[2]; 5DAA3, Trial 1", "value": 81, "unit": "%"},
      {"measurement": "% Efficacy on Adults", "setting": "[2]; 5DAA3, Trial 2", "value": 81, "unit": "%"},
      {"measurement": "% Efficacy on Adults", "setting": "[2]; 10DAA1, Trial 1", "value": 43, "unit": "%"},
      {"measurement": "% Efficacy on Adults", "setting": "[2]; 10DAA1, Trial 2", "value": 43, "unit": "%"},
      {"measurement": "% Efficacy on Adults", "setting": "[2]; 10DAA2, Trial 1", "value": 69, "unit": "%"},
      {"measurement": "% Efficacy on Adults", "setting": "[2]; 10DAA2, Trial 2", "value": 69, "unit": "%"},
      {"measurement": "% Efficacy on Adults", "setting": "[2]; 10DAA3, Trial 1", "value": 76, "unit": "%"},
      {"measurement": "% Efficacy on Adults", "setting": "[2]; 10DAA3, Trial 2", "value": 76, "unit": "%"},
      {"measurement": "% Efficacy on Adults", "setting": "[2]; 15DAA3, Trial 1", "value": 67, "unit": "%"},
      {"measurement": "% Efficacy on Adults", "setting": "[2]; 15DAA3, Trial 2", "value": 67, "unit": "%"},
      {"measurement": "% Efficacy on Adults", "setting": "[2]; 20DAA3, Trial 1", "value": 54, "unit": "%"},
      {"measurement": "% Efficacy on Adults", "setting": "[2]; 20DAA3, Trial 2", "value": 54, "unit": "%"},
      {"measurement": "% Efficacy on Adults Avg % C", "setting": "[2]; Avg, Trial 1", "value": 65, "unit": "%"},
      {"measurement": "% Infected Surface area with virus / plant", "setting": "[3]; 5DAA2, Trial 1", "value": 1.1, "unit": "%"},
      {"measurement": "% Infected Surface area with virus / plant", "setting": "[3]; 5DAA2, Trial 2", "value": 1.1, "unit": "%"},
      {"measurement": "% Infected Surface area with virus / plant", "setting": "[3]; 5DAA3, Trial 1", "value": 0.8, "unit": "%"},
      {"measurement": "% Infected Surface area with virus / plant", "setting": "[3]; 5DAA3, Trial 2", "value": 0.8, "unit": "%"},
      {"measurement": "% Infected Surface area with virus / plant", "setting": "[3]; 10DAA3, Trial 1", "value": 7.1, "unit": "%"},
      {"measurement": "% Infected Surface area with virus / plant", "setting": "[3]; 10DAA3, Trial 2", "value": 7.1, "unit": "%"},
      {"measurement": "% Infected Surface area with virus / plant", "setting": "[3]; 15DAA3, Trial 1", "value": 8.8, "unit": "%"},
      {"measurement": "% Infected Surface area with virus / plant", "setting": "[3]; 15DAA3, Trial 2", "value": 8.8, "unit": "%"},
      {"measurement": "% Infected Surface area with virus / plant", "setting": "[3]; 20DAA3, Trial 1", "value": 11.1, "unit": "%"},
      {"measurement": "% Infected Surface area with virus / plant", "setting": "[3]; 20DAA3, Trial 2", "value": 11.1, "unit": "%"},
      {"measurement": "% Infected Surface area with virus / plant", "setting": "[3]; 24DAA3, Trial 1", "value": 11.5, "unit": "%"},
      {"measurement": "% Infected Surface area with virus / plant", "setting": "[3]; 24DAA3, Trial 2", "value": 11.5, "unit": "%"}
    ]}
  ]
}
